Source: patent publication US11110091B2, “Modulators of toll-like receptors” (Gilead Sciences, Inc., priority 2008, dated 2021)

The molecules below were run on human Peripheral Blood Mononuclear Cell (PMBC) (assay: PBMC assay: cytokine (IFN-α) stimulation at 24 hours). Details: lowest concentration stimulating IFN-α production at least 3-fold over background, Luminex, read-out: IFN MEC.
Type: cell-based
Description: Assays were conducted to determine cytokine stimulation at 24 hours from human Peripheral Blood Mononuclear Cell (PMBC) using the compounds of the present invention. The assays were run in duplicate, with 8-point, half-log dilution curves. The compounds of the present invention were diluted from 10 mM DMSO solution. Cell supernatants are assayed directly for IFNα and 1:10 dilution for TNFα. The assays were performed in a similar fashion as described in Bioorg. […] Specifically, cryo-preserved PBMCs were thawed and seeded 96 well plates with 750,000 cells/well in 190 μL/well cell media. The PBMCs were then incubated for 1 hour at 37° C. at 5% CO2. Then, the compounds of the present invention were added in 10 μL cell media at 8 point, half-log dilution titration. The plates were incubated at 37° C. and 5% CO2 for 24 hours and then spinned at 1200 rpm for 10 min, which was followed by collecting supernatant and storing the same at −80° C. Cytokine secretion was assayed with Luminex and Upstate multi-plex kits, using a Luminex analysis instrument. The IFN-α MEC value for a compound was the lowest concentration at which the compound stimulated IFN-α production at least 3-fold over the background as determined using the assay method above.

Row | Compound | minimal effective concentration [µM]
1 | CCCCOc1nc(N)c2c(n1)N(Cc1ccc(CN3CCCC3)cc1)C(C)C(=O)N2 (centres unmarked) [Example 65] | ≤ 0.03
2 | CCCCOc1nc(N)c2c(n1)N(Cc1ccnc(N3CCOCC3)c1)CC(=O)N2 [Example 66] | > 0.03
3 | Nc1nc(OCC2CCCO2)nc2c1NC(=O)CN2Cc1ccnc(N2CCOCC2)c1 (centres unmarked) [Example 67] | > 0.03
4 | Nc1nc(O[C@@H]2C[C@@H]3C[C@@H]3C2)nc2c1NC(=O)CN2Cc1cccc(CN2CCCC2)c1 [Example 68] | ≤ 0.03
5 | Nc1nc(OC2CCCC2)nc2c1NC(=O)CN2Cc1ccnc(N2CCOCC2)c1 [Example 69] | > 0.03
6 | CCCCOc1nc(N)c2c(n1)N(Cc1ccc3c(c1)CN(CC1CC1)CC3)CC(=O)N2 [Example 70] | ≤ 0.03
7 | CCCCOc1nc(N)c2c(n1)N(Cc1ccc3c(c1)CN(C(C)C)CC3)CC(=O)N2 [Example 71] | ≤ 0.03
8 | CCCCOc1nc(N)c2c(n1)N(Cc1ccc3c(c1)CN(CC1CCC1)CC3)CC(=O)N2 [Example 72] | ≤ 0.03
9 | CCCCOc1nc(N)c2c(n1)N(C(C)c1ccc(CN3CCCC3)cc1)CC(=O)N2 (centres unmarked) [Example 74] | > 0.03
10 | CCCCOc1nc(N)c2c(n1)N(Cc1cccc(CN3CCC(C(=O)O)CC3)c1)CC(=O)N2 [Example 75] | > 0.03
11 | CCCCNc1nc(N)c2c(n1)N(Cc1cccc(CN3CCCC3)c1)CCC(=O)N2 [Example 76] | > 0.03
12 | Nc1nc(NCC2CCCO2)nc2c1NC(=O)CN2Cc1cccc(CN2CCCC2)c1 (centres unmarked) [Example 77] | > 0.03
13 | CCCCNc1nc(N)c2c(n1)N(Cc1ccnc(N3CCOCC3)c1)CC(=O)N2 [Example 78] | > 0.03
14 | CCCCOc1nc(N)c2c(n1)N(Cc1cccc(CN3CCN(C)CC3)c1)CC(=O)N2 [Example 79] | ≤ 0.03
15 | CCCCOc1nc(N)c2c(n1)N(Cc1cccc(CNc3ccccn3)c1)CC(=O)N2 [Example 80] | > 0.03
16 | CCCN(C)C(=O)c1nc(N)c2c(n1)N(Cc1cccc(CN3CCCC3)c1)CC(=O)N2 [Example 81] | > 0.03
17 | CCCCOc1nc(N)c2c(n1)N(Cc1cccc(CN3CCCC3)c1)C(O)C(=O)N2 (centres unmarked) [Example 82] | ≤ 0.03
18 | CCCCOc1nc(N)c2[nH]c(=O)c(=O)n(Cc3cccc(CN4CCCC4)c3)c2n1 [Example 83] | ≤ 0.03
19 | CCCN(C)C(=O)c1nc(N)c2c(n1)N(Cc1ccc(CN3CCCC3)cc1)CC(=O)N2 [Example 85] | > 0.03
20 | COC[C@H](C)Oc1nc(N)c2c(n1)N(Cc1cccc(CN3CCCC3)c1)CC(=O)N2 [Example 87] | ≤ 0.03
21 | COC[C@@H](C)Oc1nc(N)c2c(n1)N(Cc1cccc(CN3CCCC3)c1)CC(=O)N2 [Example 88] | ≤ 0.03
22 | CCCCOc1nc(N)c2[nH]c(=O)c(=O)n(Cc3ccccc3CN3CCCC3)c2n1 [Example 89] | ≤ 0.03
23 | CCCCNc1nc(N)c2[nH]c(=O)c(=O)n(Cc3cccc(CN4CCCC4)c3)c2n1 [Example 90] | > 0.03
24 | COCCOc1nc(N)c2[nH]c(=O)c(=O)n(Cc3cccc(CN4CCCC4)c3)c2n1 [Example 91] | > 0.03
25 | CCCN(C)C(=O)c1nc(N)c2[nH]c(=O)c(=O)n(Cc3cccc(CN4CCCC4)c3)c2n1 [Example 92] | > 0.03

Row | Compound | minimal effective concentration [µM]
26 | CCCN(C)C(=O)c1nc(N)c2[nH]c(=O)c(=O)n(Cc3ccc(CN4CCCC4)cc3)c2n1 [Example 93] | ≤ 0.03
27 | COCCOc1nc(N)c2c(n1)N(Cc1ccc(-c3cccc(CN4CCCC4)c3)cc1)CC(=O)N2 [Example 94] | ≤ 0.03
28 | COCCOc1nc(N)c2[nH]c(=O)c(=O)n(Cc3ccc(-c4cccc(CN5CCCC5)c4)cc3)c2n1 [Example 95] | ≤ 0.03
29 | CCCCOc1nc(N)c2c(n1)N(Cc1ccc(-c3cccc(CN4CCCC4)c3)cc1)CC(=O)N2 [Example 96] | ≤ 0.03
30 | CCCCOc1nc(N)c2[nH]c(=O)c(=O)n(Cc3ccc(-c4cccc(CN5CCCC5)c4)cc3)c2n1 [Example 97] | ≤ 0.03
31 | COCCOc1nc(N)c2c(n1)N(Cc1ccc(-c3ccc(CN4CCCC4)cc3)cc1)CC(=O)N2 [Example 98] | ≤ 0.03
32 | COCCOc1nc(N)c2[nH]c(=O)c(=O)n(Cc3ccc(-c4ccc(CN5CCCC5)cc4)cc3)c2n1 [Example 99] | ≤ 0.03
33 | CCCCOc1nc(N)c2c(n1)N(Cc1ccc(-c3ccc(CN4CCCC4)cc3)cc1)CC(=O)N2 [Example 100] | ≤ 0.03
34 | CCCCOc1nc(N)c2[nH]c(=O)c(=O)n(Cc3ccc(-c4ccc(CN5CCCC5)cc4)cc3)c2n1 [Example 101] | > 0.03
35 | CCCCOc1nc(N)c2c(n1)N(Cc1cccc(CN3C(C)CCC3C)c1)CC(=O)N2 (centres unmarked) [Example 102] | ≤ 0.03
36 | CCCCOc1nc(N)c2c(n1)N(Cc1ccc3c(c1)CCNC3)CC(=O)N2 [Example 103] | ≤ 0.03
37 | CCCCOc1nc(N)c2c(n1)N(Cc1ccc3c(c1)CCN(CC)C3)CC(=O)N2 [Example 104] | ≤ 0.03
38 | CCCCOc1nc(N)c2c(n1)N(Cc1ccc3c(c1)CCN(C(C)C)C3)CC(=O)N2 [Example 105] | ≤ 0.03
39 | CCCCOc1nc(N)c2c(n1)N(Cc1ccc3c(c1)CCN(CC1CC1)C3)CC(=O)N2 [Example 106] | > 0.03
40 | CCCCOc1nc(N)c2c(n1)N(CCC1CCN(Cc3ccccc3)CC1)CC(=O)N2 [Example 108] | > 0.03
41 | CCCC(C)Oc1nc(N)c2c(n1)N(Cc1ccc(C)nc1)CC(=O)N2 (centres unmarked) [Example 109] | > 0.03
42 | CCCCOc1nc(N)c2c(n1)N(CCCN(Cc1ccccc1)C(=O)CN1CCN(C)CC1)CC(=O)N2 [Example 110] | ≤ 0.03
43 | CCCCOc1nc(N)c2c(n1)N(Cc1ccc(C)nc1)CC(=O)N2 [Example 111] | > 0.03
44 | CCCCOc1nc(N)c2[nH]c(=O)c(=O)n(Cc3ccc(C)nc3)c2n1 [Example 112] | > 0.03
45 | CCCCOc1nc(N)c2c(n1)N(CCC1CCN(CC3CC3)CC1)CC(=O)N2 [Example 113] | ≤ 0.03
46 | Cc1ccc(CN2CC(=O)Nc3c(N)nc(OCC4CCCO4)nc32)cn1 (centres unmarked) [Example 114] | > 0.03
47 | Cc1ccc(CN2CC(=O)Nc3c(N)nc(OCC4CCOC4)nc32)cn1 (centres unmarked) [Example 115] | > 0.03
48 | CCC[C@H](C)Oc1nc(N)c2c(n1)N(Cc1ccc(C)nc1)CC(=O)N2 [Example 116] | > 0.03
49 | CCCCOc1nc(N)c2c(n1)N(Cc1ccc(C(F)(F)F)nc1)CC(=O)N2 [Example 117] | > 0.03
50 | Nc1nc(OCC2CCOCC2)nc2c1NC(=O)CN2Cc1ccc(C(F)(F)F)nc1 [Example 118] | > 0.03
